Source: patent US20090247559A1 (Exelixis, Inc., priority 2007, published 2009)

Tests used:
[1] = target: PIM (PIM-1, PIM-2, and/or PIM-3); experiment: PIM-1, PIM-2 and PIM-3 inhibition, biochemical chemiluminescence assays (Kinase Glo, IC50 determination); conditions: Table 1 activity class; PIM refers to PIM-1, PIM-2, and/or PIM-3; read-out: PIM IC50 (Activity B)
CK2 = CK2 (Homo sapiens, UniProt P68400); experiment: CK2 inhibition, biochemical chemiluminescence holoenzyme assay (Kinase Glo, IC50 determination); conditions: Table 1 activity class; symbol given only if active; read-out: CK2 IC50 (Activity C)
Summary of the method: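 Holoenzyme CK2 assay; compounds pre-incubated with substrate and enzyme, then reacted 150 min at 24-27° C. Remaining ATP measured as luminescence with Kinase Glo, and IC50 derived from the signal.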

Chain of CK2 (P68400 whole entry): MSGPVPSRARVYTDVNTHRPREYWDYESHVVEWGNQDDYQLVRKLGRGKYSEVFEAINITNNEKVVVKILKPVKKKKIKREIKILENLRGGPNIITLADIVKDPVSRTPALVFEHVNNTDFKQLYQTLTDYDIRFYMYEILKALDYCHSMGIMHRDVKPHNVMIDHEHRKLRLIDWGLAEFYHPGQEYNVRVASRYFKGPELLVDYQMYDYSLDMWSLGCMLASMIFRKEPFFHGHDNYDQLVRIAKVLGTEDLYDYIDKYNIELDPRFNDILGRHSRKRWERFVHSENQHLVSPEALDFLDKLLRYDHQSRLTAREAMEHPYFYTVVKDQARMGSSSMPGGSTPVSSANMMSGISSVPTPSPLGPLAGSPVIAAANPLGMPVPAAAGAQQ
Chain of CK2 (P67870 whole entry partner): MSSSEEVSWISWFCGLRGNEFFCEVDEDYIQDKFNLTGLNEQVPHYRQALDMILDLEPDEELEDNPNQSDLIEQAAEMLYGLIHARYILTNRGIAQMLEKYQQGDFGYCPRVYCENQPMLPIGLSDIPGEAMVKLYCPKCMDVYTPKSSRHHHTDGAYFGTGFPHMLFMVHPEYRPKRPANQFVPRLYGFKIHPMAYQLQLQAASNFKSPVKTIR

IC50 [1]	IC50 (CK2)	Compound
< 10 µM	< 10 µM	O=c1[nH]c(CN2CC[C@H](O)C2)nc2c1oc1ccc(CCCO)cc12 [Compound 455, 8-(3-hydroxypropyl)-2-{[(3S)-3-hydroxypyrrolidin-1-yl]methyl}[1]benzofuro[3,2-d]pyrimidin-4(3H)-one]
< 10 µM	< 10 µM	CN(C)CC(=O)N1CCC(c2nc3c(oc4ccc(Br)cc43)c(=O)[nH]2)CC1 [Compound 210, 8-bromo-2-[1-(N,N-dimethylglycyl)piperidin-4-yl][1]benzofuro[3,2-d]pyrimidin-4(3H)-one]
< 10 µM	< 10 µM	CCN1C[C@@H]2C[C@H]1CN2Cc1nc2c(oc3ccc(Br)cc32)c(=O)[nH]1 [Compound 295, 8-bromo-2-{[(1S,4S)-5-ethyl-2,5-diazabicyclo[2.2.1]hept-2-yl]methyl}[1]benzofuro[3,2-d]pyrimidin-4(3H)-one]
< 10 µM	< 10 µM	C[C@H](c1ccccc1)N1C[C@H](c2nc3c(oc4ccc(Br)cc43)c(=O)[nH]2)CC1=O [Compound 282, 8-bromo-2-{(3R)-5-oxo-1-[(1R)-1-phenylethyl]pyrrolidin-3-yl}[1]benzofuro[3,2-d]pyrimidin-4(3H)-one]
< 10 µM	< 10 µM	O=C(Nc1ccncc1)Nc1ccc(-c2nc3c(oc4ccc(Br)cc43)c(=O)[nH]2)c(Cl)c1 [Compound 415, 1-[4-(8-bromo-4-oxo-3,4-dihydro[1]benzofuro[3,2-d]pyrimidin-2-yl)-3-chlorophenyl]-3-pyridin-4-ylurea]
< 10 µM	< 10 µM	O=C(Nc1ccc(Cl)c(-c2nc3c(oc4ccc(Br)cc43)c(=O)[nH]2)c1)c1ccno1 [Compound 372, N-[3-(8-bromo-4-oxo-3,4-dihydro[1]benzofuro[3,2-d]pyrimidin-2-yl)-4-chlorophenyl]isoxazole-5-carboxamide]
< 10 µM	< 10 µM	O=c1[nH]c(CNCc2cccc(Cl)c2)nc2c1oc1ccc(Br)cc12 [Compound 256, 8-bromo-2-({[(3-chlorophenyl)methyl]amino}methyl)[1]benzofuro[3,2-d]pyrimidin-4(3H)-one]
< 10 µM	< 10 µM	O=C(CCc1c[nH]cn1)Nc1ccc(-c2nc3c(oc4ccc(Br)cc43)c(=O)[nH]2)c(Cl)c1 [Compound 162, N-[4-(8-bromo-4-oxo-3,4-dihydro[1]benzofuro[3,2-d]pyrimidin-2-yl)-3-chlorophenyl]-3-(1H-imidazol-4-yl)propanamide]
< 10 µM	< 10 µM	COC(=O)c1ccc(-c2nc3c(oc4ccc(Br)cc43)c(=O)[nH]2)c(Cl)c1 [Compound 146, methyl 4-(8-bromo-4-oxo-3,4-dihydro[1]benzofuro[3,2-d]pyrimidin-2-yl)-3-chlorobenzoate]
< 10 µM	< 10 µM	O=C(NCc1ccc(Cl)cc1)C1CCN(Cc2nc3c(oc4ccc(Br)cc43)c(=O)[nH]2)C1 (centres unmarked) [Compound 271, 1-[(8-bromo-4-oxo-3,4-dihydro[1]benzofuro[3,2-d]pyrimidin-2-yl)methyl]-N-[(4-chlorophenyl)methyl]pyrrolidine-3-carboxamide]
< 10 µM	< 10 µM	O=c1[nH]c(Cn2ccnc2)nc2c1oc1ccc(Br)cc12 [Compound 6, 8-bromo-2-(1H-imidazol-1-ylmethyl)[1]benzofuro[3,2-d]pyrimidin-4(3H)-one]
< 10 µM	< 10 µM	O=c1[nH]c(-c2ccccc2C(F)(F)F)nc2c1oc1ccc(Br)cc12 [Compound 65, 8-bromo-2-[2-(trifluoromethyl)phenyl][1]benzofuro[3,2-d]pyrimidin-4(3H)-one]
< 10 µM	< 10 µM	CN(C)CC(C)(C)CNc1ccc(-c2nc3c(oc4ccc(Br)cc43)c(=O)[nH]2)c(Cl)c1 [Compound 179, 8-bromo-2-(2-chloro-4-{[3-(dimethylamino)-2,2-dimethylpropyl]amino}phenyl)[1]benzofuro[3,2-d]pyrimidin-4(3H)-one]
